Data on 1 compound can be found in publication PMC5766581, “NF-κB inducing kinase is a therapeutic target for systemic lupus erythematosus” (Nature Communications, 2018).

As a reminder, the Ki is the equilibrium dissociation constant of an inhibitor or competing ligand from its target. A higher Ki goes with weaker binding.

In assay [1] the test system is human B cells. Briefly: Human B cell anti-IgM proliferation assay. The settings on record: thymidine incorporation, day four. It counts as cell-based. A general note: Dividing cells build labelled thymidine or BrdU into new DNA.
The subject of assay [2] is Balb/c mice. Briefly: TNP-OVA immunization model. The class given is in vivo, mouse. The settings on record: 300 mg/kg P.O. BID, 10 days. From the text:
Four to nine 8-week-old female Balb/c mice were randomized into experimental groups upon delivery from vendor. […] Investigators were not blinded to experimental samples.

Assay [3] deals with T1, mouse NIK (Mus musculus, UniProt Q9WUL6).
T1 construct: mouse NIK kinase domain (a.a. 329–675) (1 nM); made in house; host or cells: baculovirus-infected insect cells
T1 sequence (Q9WUL6 329-675): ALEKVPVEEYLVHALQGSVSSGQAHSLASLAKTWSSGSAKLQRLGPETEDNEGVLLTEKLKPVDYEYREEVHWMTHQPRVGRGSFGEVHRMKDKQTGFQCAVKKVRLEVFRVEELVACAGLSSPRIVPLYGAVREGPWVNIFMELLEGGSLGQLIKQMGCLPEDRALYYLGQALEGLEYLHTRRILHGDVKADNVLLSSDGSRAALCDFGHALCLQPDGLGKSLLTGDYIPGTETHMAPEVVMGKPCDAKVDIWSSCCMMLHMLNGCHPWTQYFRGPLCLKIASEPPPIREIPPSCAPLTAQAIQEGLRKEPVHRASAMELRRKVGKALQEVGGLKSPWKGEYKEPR
Briefly: NIK Transcreener ADP enzymatic assay. It counts as biochemical. The settings on record: mouse NIK enzymatic activity; mean ± SD.

For assay [4], the system named is human B cells. Briefly: Human B cell rhCD40L proliferation assay. The settings on record: thymidine incorporation, day four; read-out: Human B cell anti-CD40 proliferation IC50. The class given is cell-based.
Assay [5] concerns IL-12p40 production from human monocyte derived DC. Briefly: CD40L induced IL-12p40 production from human DCs. It counts as cell-based. The settings on record: human monocyte derived DC, rhCD40L; mean ± SD; read-out: CD40-induced IL-12 p40 IC50. How it is done:
Human monocytes were enriched from whole blood (Monocyte enrichment RosetteSep, Stem Cell) followed by isolation using Monocyte Isolation Kit II (Miltenyi). Isolated monocytes were cultured (RPMI-10% FBS, penicillin/streptomycin, glutamine) with rhGM-CSF (100 ng/mL) and rhIL-4 (6.5 ng/mL) (R&D Systems) for 5 days with GM-CSF replacement on day 3. On Day 5 immature monocyte derived DCs were monitored for differentiation by flow cytometry ([…], CD83^low CD86^low CD209^+/hi). […] After 24 h plates were centrifuged and supernatants were removed for IL-12p40 cytokine measurement by ELISA (BD Biosciences). Plots and IC50 measurements were generated using GraphPad Prism software.

Assay [6] has as its system mouse B cells. As to the kind of experiment: BAFF B cell survival assay (Cell Titer Glo). The class given is cell-based. The settings on record: BAFF induced; mean ± SD. (In general: ATP-based viability assays read luminescence as a measure of living cells.)
Assay [7] concerns rhCD40L induced ICOSL expression on human B cells. As to the kind of experiment: ICOSL expression on human B cell assay. The class given is cell-based. The settings on record: ICOSL MFI by FACS, mean ± SD, read-out: CD40-induced ICOSL IC50. How it is done:
Human B cells were isolated from whole blood. B cells were enriched by RosetteSep protocol (Stem Cell Technologies), and then isolated using Human B cell isolation kit II (Miltenyi). […] Mean fluorescent intensity (MFI) of CD40L and BAFF induced ICOSL expression was measured by flow cytometry on cells stained with anti-CD20 and anti-ICOSL, using a FACS Calibur instrument (BD). Plots and IC50 measurements were generated using GraphPad Prism Software.
(Flow cytometry measures light scatter and fluorescence of single cells or particles in a stream.)

The subject of assay [8] is nuclear RelA (canonical NF-κB signaling). As to the kind of experiment: High content nuclear RelA imaging, TNF-stimulated HeLa cells. The class given is cell-based, human. The settings on record: TNF induced. How it is done:
(§1) The HeLa cell line was used to define the cellular selectivity of NIK inhibitors toward inhibition of classical vs. non-classical NF-κB signaling using high content cellular imaging assays. For the nuclear translocation assay p52 (non-canonical NF-κB signaling), HeLa cells were treated with different concentrations of compounds previously diluted in DMSO (final [DMSO] = 0.2% in all wells) in DMEM medium (10% FBS, 2 mM Glutamine) and then stimulated with 300 ng/mL of an anti-lymphotoxin beta receptor antibody for 4.5 h. In the REL-A nuclear translocation assay, HeLa cells were incubated with compounds for 4 h 50 min before stimulating them with 2 ng/mL TNF (R&D Systems) for 10 min. Cells were fixed with 4% paraformaldehyde, permeabilized by adding 0.1% Triton X-100 in phosphate buffered saline, and then are incubated with either 2 μg/mL anti-p52 antibody or 400 ng/mL anti-REL-A (p65) antibody. Finally, the cells are incubated with an Alexa488-labeled secondary antibody (Invitrogen) and DRAQ5 DNA stain (Biostatus). Imaging was carried out using an Opera reader (Perkin Elmer) and data were analyzed with Acapella software (Perkin Elmer). The p52 or REL-A translocation into the nucleus is quantified by the ratio of the nuclear to cytoplasmic signal intensity.

The subject of assay [9] is human B cells. Briefly: BAFF B cell survival assay (Cell Titer Glo). The class given is cell-based. The settings on record: BAFF induced; mean ± SD. The method, then: Human B cells were isolated using Miltenyi Human B cell isolation kit following ficoll separation of buffy coats. […] Mouse B cells were isolated from mouse spleen using Miltenyi mouse B cell isolation kit II. Cells were plated in Co-star 96-well plates at either 50,000 cells/well for the survival assays or at 150,000 cells/well for the proliferation assays. Compounds diluted in DMSO (final DMSO assay concentration = 0.1%) were added to the cells. The cells were incubated with compound for one hour at 37 °C. Stimulus was then added to the plates and survival or proliferation was measured after four days. For the proliferation assays, cells were treated with either Anti-IgM (20 μg/mL) or rhCD40L (10 μg/mL; R&D) or anti-mouse CD40 (100 ng/mL). Proliferation was measured using thymidine incorporation on day four. For the BAFF survival assay, cells were treated with human or mouse rBAFF (R&D Systems) at 10 ng/ml followed by Cell Titer Glo (Promega) to measure survival on day four.

Assay [10] relates to nuclear p52 (non-canonical NF-κB signaling). As to the kind of experiment: High content nuclear p52 imaging, anti-LTβR-stimulated HeLa cells. The class given is cell-based, human. The settings on record: anti-LTβR induced, mean ± SD. How it is done:
as §1

For `CN1CC[C@@](O)(C#Cc2cccc(-n3nc(C(N)=O)c4ccccc43)c2)C1=O` [NIK SMI2], the IC50 was greater than 10 µM in assay [1]; greater than 10 µM in [4]; 60.7 nM in assay [5]; 1750 nM in [6]; 58.7 nM in [7]; greater than 2000 nM in assay [8]. Also, the IC50 in assay [9] is 360 nM; in [10], 43 nM. The “germinal center B cell development and antigen-specific IgG1 production” value in assay [2] is recorded as “reduced”. In assay [3], this compound displayed a Ki of 0.84 nM.
